Experimental data as given in patent US20110301200A1, “THYROID RECEPTOR LIGANDS” (CADILA HEALTHCARE LIMITED, priority 2008, published 2011).

Legend:
[1] = target: T1, TR-α (Homo sapiens, UniProt P10827); experiment: In vitro TR-α activity (in-house protocol); assay type: cell-based; conditions: for fold induction at 0.001 µM: Conc. 1 nM; for fold induction at 0.001 µM / fold induction at 0.01 µM / fold induction at 0.1 µM / fold induction at 1 µM: read-out: TR-α Fold Induction w.r.t T3(100 nm); for fold induction at 0.01 µM: Conc. 10 nM; for fold induction at 0.1 µM: Conc. 100 nM; for fold induction at 1 µM: Conc. 1000 nM
T1 sequence (P10827 1-410 isoform P10827-2): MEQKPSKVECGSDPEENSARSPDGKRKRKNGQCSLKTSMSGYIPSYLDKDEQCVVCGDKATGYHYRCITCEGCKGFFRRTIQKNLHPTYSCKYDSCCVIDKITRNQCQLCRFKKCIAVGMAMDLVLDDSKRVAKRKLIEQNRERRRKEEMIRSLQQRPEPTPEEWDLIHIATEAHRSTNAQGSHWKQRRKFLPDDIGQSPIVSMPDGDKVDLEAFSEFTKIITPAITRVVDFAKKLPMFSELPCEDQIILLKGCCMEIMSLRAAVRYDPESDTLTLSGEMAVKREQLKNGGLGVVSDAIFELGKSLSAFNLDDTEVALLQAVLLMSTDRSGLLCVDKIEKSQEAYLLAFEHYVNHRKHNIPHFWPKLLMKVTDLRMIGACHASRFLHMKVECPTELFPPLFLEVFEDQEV
Experimental: (§1) In vitro TR-α & TR-β activities were determined as per in-house protocols and the results of representative compounds are provided in tables 1 & 2 below as a proof of the efficacies of the novel class of compounds disclosed above.

[2] = target: T2, TR-β (Homo sapiens, UniProt P10828); experiment: In vitro TR-β activity (in-house protocol); assay type: cell-based; conditions: for fold induction at 0.001 µM: Conc. 1 nM; for fold induction at 0.001 µM / fold induction at 0.01 µM / fold induction at 0.1 µM / fold induction at 1 µM: read-out: TR-β Fold Induction w.r.t T3(100 nm); for fold induction at 0.01 µM: Conc. 10 nM; for fold induction at 0.1 µM: Conc. 100 nM; for fold induction at 1 µM: Conc. 1000 nM
T2 sequence (P10828 1-461): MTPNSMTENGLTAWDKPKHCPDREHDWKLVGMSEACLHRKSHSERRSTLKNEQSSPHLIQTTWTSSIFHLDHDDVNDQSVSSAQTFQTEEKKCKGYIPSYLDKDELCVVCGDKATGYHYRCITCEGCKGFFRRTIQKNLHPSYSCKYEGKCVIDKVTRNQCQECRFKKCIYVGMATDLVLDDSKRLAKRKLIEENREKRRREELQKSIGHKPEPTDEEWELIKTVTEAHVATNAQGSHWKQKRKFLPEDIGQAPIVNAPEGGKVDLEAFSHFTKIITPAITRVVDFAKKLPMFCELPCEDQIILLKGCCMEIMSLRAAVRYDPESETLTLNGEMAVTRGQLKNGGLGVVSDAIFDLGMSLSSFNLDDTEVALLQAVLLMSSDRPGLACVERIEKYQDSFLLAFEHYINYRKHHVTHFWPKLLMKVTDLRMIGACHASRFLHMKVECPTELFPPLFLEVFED
Experimental: as §1

Row | fold induction at 0.001 µM [1] | fold induction at 0.01 µM [1] | fold induction at 0.1 µM [1] | fold induction at 1 µM [1] | fold induction at 0.001 µM [2] | fold induction at 0.01 µM [2] | fold induction at 0.1 µM [2] | fold induction at 1 µM [2] | EC50 [1] | EC50 [2] | Compound
1 | 14.1 | 11.8 | 17.9 | 39.8 | 10.9 | 9.74 | 21.4 | 47.5 |  |  | CC(ON=Cc1cc(Br)c(Oc2ccc(O)c(C(O)c3cccc(Cl)c3)c2)c(Br)c1)C(=O)O (stereo not shown) [Example 34, 2-(((3,5-dibromo-4-(3-((3-chlorophenyl)(hydroxy)methyl)-4-hydroxyphenoxy)benzylidene)amino)oxy)propanoic acid]
2 | 14.1 | 15.4 | 57.8 | 128 | 11 | 19.7 | 58.2 | 107 |  |  | CC(ON=Cc1cc(Br)c(Oc2ccc(O)c(S(=O)(=O)N3CCCCC3)c2)c(Br)c1)C(=O)O (stereo not shown) [Example 36, 2-(((3,5-dibromo-4-(4-hydroxy-3-(piperidin-1-ylsulfonyl)phenoxy)benzylidene)amino)oxy)propanoic acid]
3 | 13.7 | 17.2 | 38.3 | 39.2 | 11.8 | 14.3 | 41.5 | 50.3 |  |  | O=C(O)CON=Cc1cc(Br)c(Oc2ccc(O)c(C(=O)c3ccc(Br)cc3)c2)c(Br)c1 [Example 31, 2-(((3,5-dibromo-4-(3-(4-bromobenzoyl)-4-hydroxyphenoxy)benzylidene)amino)oxy)acetic acid]
4 | 12.8 | 16.6 | 50.4 | 105 | 12.9 | 18.2 | 51.6 | 63.8 |  |  | CCC(ON=Cc1cc(Br)c(Oc2ccc(O)c(-c3ccccc3)c2)c(Br)c1)C(=O)O (stereo not shown) [Example 21, 2-(((3,5-dibromo-4-((6-hydroxy-[1,1′-biphenyl]-3-yl)oxy)benzylidene)amino)oxy)butanoic acid]
5 | 20.4 | 16.8 | 22.8 | 69.8 | 11.8 | 12.9 | 14.5 | 65 |  |  | O=C(O)CON=Cc1cc(Br)c(Oc2ccc(O)c(C(O)c3ccc(Br)cc3)c2)c(Br)c1 (stereo not shown) [Example 32, 2-(((3,5-dibromo-4-(3-((4-bromophenyl)(hydroxy)methyl)-4-hydroxyphenoxy)benzylidene)amino)oxy)acetic acid]
6 | 13.8 | 28.5 | 79 | 134 | 11.5 | 37.1 | 59.9 | 86.7 |  |  | CCc1cc(Oc2c(Br)cc(C=NOC(C)C(=O)O)cc2Br)ccc1O (stereo not shown) [Example 25, 2-(((3,5-dibromo-4-(3-ethyl-4-hydroxyphenoxy)benzylidene)amino)oxy)propanoic acid]
7 |  |  |  |  |  |  |  |  | 2100 nM | 4900 nM | O=C(O)CON=Cc1cc(Br)c(Oc2ccc(O)c(C(O)c3cccc(Cl)c3)c2)c(Br)c1 (stereo not shown) [Example 35, 2-(((3,5-dibromo-4-(3-((3-chlorophenyl)(hydroxy)methyl)-4-hydroxyphenoxy)benzylidene)amino)oxy)acetic acid]
8 | 10.6 | 11.8 | 13.5 | 29.5 | 11.5 | 11.2 | 15.8 | 40.4 |  |  | CC(ON=Cc1cc(Br)c(Oc2ccc(O)c(S(=O)(=O)NC3CCCCC3)c2)c(Br)c1)C(=O)O (stereo not shown) [Example 39, 2-(((3,5-dibromo-4-(3-(N-cyclohexylsulfamoyl)-4-hydroxyphenoxy)benzylidene)amino)oxy)propanoic acid]

Further lines, the compound ahead of its results:

Row | Compound | fold induction at 0.001 µM [1] | fold induction at 0.01 µM [1] | fold induction at 0.1 µM [1] | fold induction at 1 µM [1] | fold induction at 0.001 µM [2] | fold induction at 0.01 µM [2] | fold induction at 0.1 µM [2] | fold induction at 1 µM [2] | EC50 [1] | EC50 [2]
9 | CC(ON=Cc1cc(Br)c(Oc2ccc(O)c(-c3ccccc3)c2)c(Br)c1)C(=O)O (stereo not shown) [Example 11, 2-(((3,5-dibromo-4-((6-hydroxy-[1,1′-biphenyl]-3-yl)oxy)benzylidene)amino)oxy)propanoic acid] | 16.2 | 32.8 | 70.2 | 49.4 | 16.1 | 39.3 | 73.8 | 65.3 |  | 
10 | CC(ON=Cc1cc(Br)c(Oc2ccc(O)c(Cc3ccccc3)c2)c(Br)c1)C(=O)O (stereo not shown) [Example 16, 2-(((4-(3-benzyl-4-hydroxyphenoxy)-3,5-dibromobenzylidene)amino)oxy)propanoic acid] | 19.1 | 29.4 | 119 | 161 | 12 | 31.7 | 54.3 | 70.5 |  | 
11 | CCC(C)c1cc(Oc2c(Br)cc(C=NOC(C(=O)O)c3ccccc3)cc2Br)ccc1O (stereo not shown) [Example 18, 2-(((3,5-dibromo-4-(3-(sec-butyl)-4-hydroxyphenoxy)benzylidene)amino)oxy)-2-phenylacetic acid] | 15.5 | 36 | 77 | 90.4 | 13.8 | 20.8 | 69.5 | 122 |  | 
12 | O=C(O)CON=Cc1cc(Br)c(Oc2ccc(O)c(Cc3ccccc3)c2)c(Br)c1 [Example 9, 2-(((4-(3-benzyl-4-hydroxyphenoxy)-3,5-dibromobenzylidene)amino)oxy)acetic acid] | 10.7 | 10.7 | 23.8 | 64.8 | 11.5 | 17.6 | 60.2 | 98.8 |  | 
13 | O=C(O)CON=Cc1cc(Br)c(Oc2ccc(O)c(-c3ccccc3)c2)c(Br)c1 [Example 7, 2-(((3,5-dibromo-4-((6-hydroxy-[1,1′-biphenyl]-3-yl)oxy)benzylidene)amino)oxy)acetic acid] |  |  |  |  |  |  |  |  | 5.2 nM | 2.9 nM
14 | CCC(C)c1cc(Oc2c(Br)cc(C=NOC(C)(C)C(=O)O)cc2Br)ccc1O (stereo not shown) [Example 15, 2-(((3,5-dibromo-4-(3-(sec-butyl)-4-hydroxyphenoxy)benzylidene)amino)oxy)-2-methyl propanoic acid] | 35.7 | 77.7 | 119 | 123 | 23 | 84.3 | 118 | 72.3 |  | 
15 | O=C(O)CON=Cc1cc(Cl)c(Oc2ccc(O)c(Cc3ccccc3)c2)c(Cl)c1 [Example 5, 2-(((4-(3-benzyl-4-hydroxyphenoxy)-3,5-dichlorobenzylidene)amino)oxy)acetic acid] | 14.2 | 10.8 | 28.3 | 57 | 14.8 | 12 | 43.6 | 80.5 |  | 
16 | CC(C)c1cc(Oc2c(Br)cc(C=NOC(C)(C)C(=O)O)cc2Br)ccc1O [Example 12, 2-(((3,5-dibromo-4-(4-hydroxy-3-isopropylphenoxy)benzylidene)amino)oxy)-2-methylpropanoic acid] | 24 | 59.9 | 88.7 | 110 | 39 | 65.4 | 119 | 67.4 |  | 
17 | O=C(O)CON=Cc1cc(Cl)c(Oc2ccc(O)c(-c3ccccc3)c2)c(Cl)c1 [Example 4, 2-(((3,5-dichloro-4-((6-hydroxy-[1,1′-biphenyl]-3-yl)oxy)benzylidene)amino)oxy)acetic acid] | 11 | 9.45 | 14 | 35.5 | 11.4 | 10.5 | 19.3 | 64.4 |  | 
